The values that follow come from patent publication US20120183635A1, “ROSEMARY EXTRACTS, DIETARY AND PHARMACEUTICAL COMPOSITIONS CONTAINING THEM AND THEIR USES” (DSM IP ASSETS B.V., priority 2006, published 2012).

The assay deals with duration of immobility. The assay is described as follows: Porsolt's Forced Swim Test (FST) in the mouse. The class given is in vivo. The following applies: 32 mg/kg p.o., −24, −5, −1 h. Here is the method: Mice were individually placed in a cylinder (Height=24.5 cm, Diameter=19.5 cm) containing 13.5 cm water (22° C.) from which they could not escape. The mice were placed in the water for 6 min and the duration of immobility during the last 4 min was measured. Ten mice were studied per group. Rosemary extract (dissolved in corn oil) was evaluated at 272, 409 and 545 mg/kg body weight, administered orally 24, 5, and 1 h before the test, and compared with a vehicle-treated control group. Imipramine (32 mg/kg, p.o.; dissolved in distilled water), administered under the same experimental conditions, was used as reference substance. Data were analysed by comparing all groups using one-way Analysis of Variance (ANOVA) and the Bonferroni post-hoc test.

On to `CN(C)CCCN1c2ccccc2CCc2ccccc21` [Imipramine, imipramine], for which the “DURATION OF IMMOBILITY % change from control” value is −59% and the “DURATION OF IMMOBILITY (as % total test time) mean ± S.D.” value is reported as 17.75 ± 9.92 % total test time.
